The source of these data is patent publication US20160279204A1, “PEPTIDES AND PHARMACEUTICAL COMPOSITIONS FOR USE IN THE TREATMENT BY NASAL ADMINISTRATION OF PATIENTS SUFFERING FROM ANXIETY AND SLEEP DISORDERS” (MAX-PLANCK-GESELLSCHAFT ZUR FÖRDERUNG DER WISSENSCHAFT E.V., priority 2011, published 2016).

Experiment [1] relates to Bl6 and HAB mice. In words: Elevated plus maze (EPM) after intranasal NPS. Type of experiment: in vivo, mouse. The protocol: (§1) Behavioural tests (open field, dark-light test and elevated plus maze (EPM)) following intranasal NPS application were performed sequentially. Each test lasted for 5 min with an inter-test interval of 5 min, as described previously (Bunck et al., 2009; Krömer et al., 2005). The animals' behaviour during testing was videotaped and relevant parameters were analysed with the tracking software ANY-maze version 4.30 (Stoelting, Wood Dale, Ill., USA). Native NPS (1 μg/μL) or vehicle (Ringer solution) were administered intranasally to the alert mouse as described above (total volume: 14 μL). Mice were tested 30 min and 4 hrs after intranasal administration of first drop. Animals were sacrificed 24 hrs after treatment and prefrontal cortex and bilateral hippocampi were prepared immediately and shock-frozen in methylbutane.
(§2) After having ascertained that nasally administered NPS reaches its target cells, anxiolytic effects of NPS were established for this transnasal delivery method. For this purpose, nasally 6.36 nmol NPS per mouse was administered to two mouse strains, Bl6 and HAB (high anxiety behaviour) mice. HAB animals, a mouse strain inbred for pathologically high anxiety, were chosen together with Bl6 mice to allow differentiation between the temporary condition of state anxiety and the general condition of trait anxiety (Bunck et al., 2009; Kromer et al., 2005). To accurately characterise the anxiety-relieving properties of NPS in these two mouse strains, three standardised behavioural assays measuring anxiolytic effects at two different time points after intranasal NPS administration were performed. In each test, the effects of intranasal NPS versus vehicle treatment on both anxiety- and locomotion-related indices were examined.

Experiment [2] deals with Bl6 and HAB mice. In words: Dark-light test after intranasal NPS. Type of experiment: in vivo, mouse. Conditions: for time spent in the light chamber / total distance traveled: intranasal, 4 hrs. As to the method:
as §1, §2

The test system of experiment [3] is Bl6 and HAB mice. In words: Open field after intranasal NPS. Type of experiment: in vivo, mouse. As to the method: as §1, §2
Experiment [4] relates to C57BL/6N mice. In words: Dark-light test after bilateral NPS injection into CA1 of the VH. It is filed as in vivo, mouse. The settings on record: 0.1 nmol NPS each side into CA1 of VH, 30 min. As to the method: Animals were fixed in a stereotactic frame and maintained under isoflurane anesthesia (Forene® 100%, V/V; induction: 2.5%; maintenance: 1.5%; in O2; flow rate: 1 L/min). The mice received acute analgesic treatment with Metacam s.c. during surgery (0.5 mg/kg; in NaCl). 23 gauge stainless-steel guide cannulas were implanted in the CA1 region of the VH at the following coordinates: 3.1 mm posterior, ±3 mm lateral from bregma, and 2 mm ventral from the skull surface (Franklin and Paxinos, 2007). The guide cannulas were fixed with two screws and a two-component adhesive. For behavioural experiments, animals were implanted bilaterally for later bilateral injection, whereas for Cy3-NPS injections, implantation was performed unilaterally. The animals were allowed to recover for at least 6 days before starting the behavioural experiments. Substance infusions were carried out manually, on mice anesthetised by brief inhalation of isoflurane, using a 30 gauge injection cannula connected to a Tygon tube and a 10 μL Hamilton syringe. […]
Mice were injected bilaterally either with 0.1 nmol NPS in 0.5 μL ACSF for each side or with 0.5 μL of ACSF for each side. […] Animal behaviour was videotaped and relevant parameters were analysed using the tracking software ANY-maze version 4.30 (Stoelting, Wood Dale, Ill., USA). […]

For experiment [5], the system named is CA3-CA1 synapses of the VH. In words: Field potential recordings, bath application of NPS to VH slices. The arrangement: species or system mouse. The settings on record: bath application of NPS 1 μM, VH slices from C57BL/6N mice. The protocol: Brains were dissected and placed in ice-cold carbogenated ACSF. 350 μm horizontal slices containing the VH were prepared using a vibroslicer. Afterwards, the slices were incubated for 30 min at 34° C. and subsequently stored at room temperature. For experiments, slices were placed in a submerged recording chamber and continuously superfused with carbogenated ACSF at a flow rate of 3 mL/min. Square pulse electrical stimuli (50 μs pulse width) were delivered via a bipolar tungsten electrode (insulated to the tip, 50 μm pole diameter) that was positioned within the stratum radiatum of the CA1 region. All recordings were performed at room temperature, low-pass filtered at 1 kHz, and digitised at 5 kHz. Evoked field excitatory postsynaptic potentials (fEPSPs) were recorded using glass micro-electrodes (1 MΩ open-tip resistance), filled with ACSF and also positioned within the CA1 stratum radiatum. Stimulus intensities were adjusted in a manner to produce a fEPSP of ˜50% of that amplitude at which a population spike becomes clearly observable. Paired-pulse facilitation was measured at interstimulus intervals of 25, 50, 100, 200, and 400 ms and the paired-pulse ratio was calculated as fEPSP2 amplitude/fEPSP1 amplitude.

The target in experiment [6] is T1, NPSR (Mus musculus, UniProt Q8BZP8).
T1 construct: host or cells: rodent brain in vivo
T1 sequence (Q8BZP8 1-371): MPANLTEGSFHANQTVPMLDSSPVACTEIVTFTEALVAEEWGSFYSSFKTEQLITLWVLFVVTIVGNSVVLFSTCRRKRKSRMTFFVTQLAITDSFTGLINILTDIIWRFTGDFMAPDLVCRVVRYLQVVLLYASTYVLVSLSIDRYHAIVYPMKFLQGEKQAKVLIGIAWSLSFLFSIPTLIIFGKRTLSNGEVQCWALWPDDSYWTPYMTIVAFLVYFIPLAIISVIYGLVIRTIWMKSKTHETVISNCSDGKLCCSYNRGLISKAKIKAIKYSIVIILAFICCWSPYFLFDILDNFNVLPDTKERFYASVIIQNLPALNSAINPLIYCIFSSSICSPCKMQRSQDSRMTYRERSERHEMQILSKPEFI
Conditions: rodents, ICV injection, US 2010/0056455; cited from earlier work.

Experiment [7] has as its system NPSR. Conditions: cited from earlier work.
Where [8] appears, read: Bl6 and HAB mice, intranasal 6.36 nmol per mouse, 30 min.

“Also recorded” adds a separate entry of the source.

As to “neuropeptide S (SFRNGVGSGVKKTSFRRAKQ; Neuropeptide S; UniProt P0C0P7 70-89, looked up) [NPS, peptide agonist of neuropeptide S receptor (NPSR); native NPS, rat, from Bachem]”, in experiment [1] (setting [8]), the “behavioural differences versus vehicle in EPM” value was “no behavioural differences”. In addition, in experiment [1] (Bl6 mice, intranasal, 4 hrs), the “time on the open arms” value is reported as “significantly increased” and the “total number of entries” value was “no difference”. Also, the “any parameter tested in the EPM” value in experiment [1] (HAB mice, intranasal, 4 hrs) was “no differences”. Further, in experiment [2] (setting [8]), the “behavioural differences versus vehicle in dark-light test” value is “no behavioural differences”. In addition, in experiment [2] (Bl6 mice), the “time spent in the light chamber” value is given as “did not differ significantly” and the total distance traveled entry is “did not differ significantly”. For the same substance, in experiment [2] (HAB mice), the “time spent in the light chamber” value is “significantly increased” and the total distance traveled result is reported as “unaffected”. Further, the “behavioural differences versus vehicle in open field” value in experiment [3] (setting [8]) is recorded as “no behavioural differences”. Moreover, in experiment [3] (Bl6 mice, intranasal, 4 hrs), the “any parameter examined in the open field” value was “no effect”. Moreover, the “any parameter tested in the open field” value in experiment [3] (HAB mice, intranasal, 4 hrs) is listed as “no differences”. The “anxiety- and locomotion-related behaviour in the dark-light test” value in experiment [4] is on record as “did not affect locomotion; also recorded: not altered”. In experiment [5], the “long-term potentiation (LTP)” value is recorded as “decreases” and the paired-pulse facilitation result is reported as “decreases”. The “locomotor activity and wakefulness” value in experiment [6] was “increased locomotor activity and wakefulness”. Also, the “response of NPSR-KO mice to NPS treatment” value in experiment [7] (NPSR-KO mice, Duangdao et al., 2009) is reported as “resistant”. The anxiolytic effects entry in experiment [7] (rodents, intracerebral and ICV injection) is “strong anxiolytic effects”.
